Assay results from paper PMC3460821, “SIRT1 Activators Suppress Inflammatory Responses through Promotion of p65 Deacetylation and Inhibition of NF-κB Activity” (PLoS ONE, 2012).

System: SIRT1
Test: cells
Design: species or system U2OS or HEK 293; AlphaScreen of acetylated K310-p65 in lysates of cells co-expressing p300 and HA-p65; reduction by SIRT1 activators
Conditions: reduction of cellular acetylated p65 (K310); read-out: Cellular p65 acetylation assay IC50
Method: Acetylated p65 protein in cell lysates was measured by an AlphaScreen format based assay (Bosse et al., Principles of AlphaScreen. PerkinElmer Application Note (2001)). A sandwich comprised of a biotinylated anti-HA antibody (Roche, 12158167001) bound to streptavidin coated donor beads (PerkinElmer, 6760617M) and an anti-acetylated K310-p65 antibody (Abcam, ab19870) interacting with protein A coated acceptor beads was assembled to detect light emission upon acetylated HA-p65 protein binding to the donor and acceptor beads. A similar AlphaScreen assay to measure total HA-tagged p65 protein was also developed by replacing the anti-acetylated K310-p65 antibody with an anti-p65 antibody (Santa Cruz, sc-109). The level of acetylated p65 protein was normalized against the total HA-tagged p65 protein measured in parallel for the same sample. We developed a high throughput cellular assay to examine the ability of compounds to promote SIRT1-mediated deacetylation of p65 protein in cells. This assay system uses BacMam virus transduction in U2OS or HEK 293 cells to co-express p300 HAT and an HA-tagged p65 NF-κB subunit to enable detection of acetylated p65. […] Similarly, pharmacological inhibition of SIRT1 by a specific SIRT1 inhibitor, EX-527 [46], increased the levels of acetylated p65 protein (Figure 3D). […] STACs that were identified from biochemical assays (File S1) were evaluated in the acetylated p65 cellular assay. […] The compounds were tested for the inhibition of histone acetyltransferases (HATs) since this could result in a reduction of acetylated p65 that could not be distinguished from an enhancement of deacetylation.

SMILES | IC50 [nM]
O=C(Nc1nccs1)c1cccc2[nH]c(-c3cccc(N4CCOCC4)c3)nc12 [SRTCX1002] | 840
O=C(Nc1nccs1)c1cccc2[nH]c(-c3ccccc3OCCN3CCOCC3)nc12 [SRTCX1003] | 1420
O=C(Nc1nccs1)c1cccc2[nH]c(-c3ccc4c(c3)OC(F)(F)O4)nc12 [SRTCZ1001] | > 25000
